Results published in patent US8012998B2, “Pyrrolidine aryl-ether as NK-3 receptor antagonists” (Hoffmann—LA Roche Inc., priority 2007, dated 2011).

Biological target: T1, human NK3 receptor (Homo sapiens, UniProt P29371)
T1 construct: expressed in transfected cells; host or cells: HEK293 cells (transient expression), membrane preparation
T1 sequence (P29371 1-465): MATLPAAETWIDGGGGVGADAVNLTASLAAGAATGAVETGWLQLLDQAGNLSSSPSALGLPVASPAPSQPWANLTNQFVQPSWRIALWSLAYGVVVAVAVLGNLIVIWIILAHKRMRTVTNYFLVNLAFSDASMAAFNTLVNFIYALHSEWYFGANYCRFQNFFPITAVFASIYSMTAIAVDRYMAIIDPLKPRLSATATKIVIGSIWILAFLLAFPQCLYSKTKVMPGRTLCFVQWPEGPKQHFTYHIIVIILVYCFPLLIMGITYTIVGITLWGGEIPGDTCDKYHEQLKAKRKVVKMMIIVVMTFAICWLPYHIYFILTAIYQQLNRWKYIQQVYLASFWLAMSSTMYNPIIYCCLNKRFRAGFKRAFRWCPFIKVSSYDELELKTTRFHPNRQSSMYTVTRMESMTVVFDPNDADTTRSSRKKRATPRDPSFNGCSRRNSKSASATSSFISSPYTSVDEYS
Experiment: [3H]SR142801 competition binding assay (hNK3 receptor binding)
Conditions: [3H]SR142801 radioligand; membranes from HEK293 cells transiently expressing recombinant human NK3 receptor; Ki by Cheng-Prussoff; read-out: KiNK3 h
Protocol: [^3H]SR^142801 Competition Binding Assay
hNK3 receptor binding experiment were performed using [^3H]SR^142801 (Catalog No. TRK1035, specific activity: 74.0 Ci/mmol, Amersham, GE Healthcare UK limited, Buckinghamshire, UK) and membrane isolated from HEK293 cells transiently expressing recombinant human NK3 receptor. After thawing, the membrane homogenates were centrifuged at 48,000×g for 10 min at 4° C., the pellets were resuspended in the 50 mM Tris-HCl, 4 mM MnCl2, 1 μM phosphoramidon, 0.1% BSA binding buffer at pH 7.4 to a final assay concentration of 5 μg protein/well. […] At the end of the incubation, membranes were filtered onto unitfilter (96-well white microplate with bonded GF/C filter preincubated 1 h in 0.3% PEI +0.3% BSA, Packard BioScience, Meriden, Conn.) with a Filtermate 196 harvester (Packard BioScience) and washed 4 times with ice-cold 50 mM Tris-HCl, pH 7.4 buffer. Nonspecific binding was measured in the presence of 10 μM SB222200 for both radioligands. The radioactivity on the filter was counted (5 min) on a Packard Top-count microplate scintillation counter with quenching correction after addition of 45 μl of microscint 40 (Canberra Packard S.A., Zutrich, Switzerland) and shaking for 1 h. Inhibition curves were fitted according to the Hill equation: y=100/(1+(x/IC50)^nH), where nH=slope factor using Excel-fit 4 software (Microsoft). IC50 values were derived from the inhibition curve and the affinity constant (Ki) values were calculated using the Cheng-Prussoff equation Ki=IC50/(1+[L]/KD) where [L] is the concentration of radioligand and KD is its dissociation constant at the receptor, derived from the saturation isotherm. All experiments were performed in duplicate and the mean ± standard error (SEM) of the individual Ki values was calculated.

Compound	Ki [nM]
C[C@@H](Oc1ccc(C(F)(F)F)cc1)[C@@H]1CN(C(=O)c2ccc(C#N)cc2)C[C@H]1c1ccc(Cl)c(Cl)c1 (racemic) [Example 2, 4-{(3RS,4SR)-3-(3,4-Dichloro-phenyl)-4-[(RS)-1-(4-trifluoromethyl-phenoxy)-ethyl]-pyrrolidine-1-carbonyl}-benzonitrile]	35.5
Cc1ccc(C(=O)N2C[C@@H]([C@@H](C)Oc3ccc(C(F)(F)F)cc3)[C@H](c3ccc(Cl)c(Cl)c3)C2)cn1 (racemic) [Example 6, {(3RS,4SR)-3-(3,4-Dichloro-phenyl)-4-[(RS)-1-(4-trifluoromethyl-phenoxy)-ethyl]-pyrrolidin-1-yl}-(6-methyl-pyridin-3-yl)-methanone]	63.6
COc1ccc(C(=O)N2C[C@@H]([C@@H](C)Oc3ccc(C(F)(F)F)cc3)[C@H](c3ccc(Cl)c(Cl)c3)C2)cn1 (racemic) [Example 9, {(3RS,4SR)-3-(3,4-Dichloro-phenyl)-4-[(RS)-1-(4-trifluoromethyl-phenoxy)-ethyl]-pyrrolidin-1-yl}-(6-methoxy-pyridin-3-yl)-methanone]	79.8
C[C@@H](Oc1ccc(Cl)cn1)[C@@H]1CN(C(=O)c2ccc(C#N)cc2)C[C@H]1c1ccc(Cl)c(Cl)c1 (racemic) [Example 10, 4-[(3SR,4RS)-3-[(RS)-1-(5-Chloro-pyridin-2-yloxy)-ethyl]-4-(3,4-dichloro-phenyl)-pyrrolidine-1-carbonyl]-benzonitrile]	3.2
COc1ccc(C(=O)N2C[C@@H]([C@@H](C)Oc3ccc(Cl)cn3)[C@H](c3ccc(Cl)c(Cl)c3)C2)cn1 (racemic) [Example 11, [(3SR,4RS)-3-[(RS)-1-(5-Chloro-pyridin-2-yloxy)-ethyl]-4-(3,4-dichloro-phenyl)-pyrrolidin-1-yl]-(6-methoxy-pyridin-3-yl)-methanone]	11.8
COc1ncc(C(=O)N2C[C@@H]([C@@H](C)Oc3ccc(Cl)cn3)[C@H](c3ccc(Cl)c(Cl)c3)C2)cn1 (racemic) [Example 12, [(3SR,4RS)-3-[(RS)-1-(5-Chloro-pyridin-2-yloxy)-ethyl]-4-(3,4-dichloro-phenyl)-pyrrolidin-1-yl]-(2-methoxy-pyrimidin-5-yl)-methanone]	19.4
C[C@@H](Oc1ccc(Cl)cn1)[C@@H]1CN(C(=O)c2ccc(N(C)C)cc2)C[C@H]1c1ccc(Cl)c(Cl)c1 (racemic) [Example 13, [(3SR,4RS)-3-[(RS)-1-(5-Chloro-pyridin-2-yloxy)-ethyl]-4-(3,4-dichloro-phenyl)-pyrrolidin-1-yl]-(4-dimethylamino-phenyl)-methanone]	50
C[C@@H](Oc1ccc(Cl)cn1)[C@@H]1CN(C(=O)c2ccc(F)nc2)C[C@H]1c1ccc(Cl)c(Cl)c1 (racemic) [Example 14, [(3SR,4RS)-3-[(RS)-1-(5-Chloro-pyridin-2-yloxy)-ethyl]-4-(3,4-dichloro-phenyl)-pyrrolidin-1-yl]-(6-fluoro-pyridin-3-yl)-methanone]	27.8
Cc1cc(C(=O)N2C[C@@H]([C@@H](C)Oc3ccc(Cl)cn3)[C@H](c3ccc(Cl)c(Cl)c3)C2)ccn1 (racemic) [Example 15, [(3SR,4RS)-3-[(RS)-1-(5-Chloro-pyridin-2-yloxy)-ethyl]-4-(3,4-dichloro-phenyl)-pyrrolidin-1-yl]-(2-methyl-pyridin-4-yl)-methanone]	6.3
Cc1ccc(C(=O)N2C[C@@H]([C@@H](C)Oc3ccc(Cl)cn3)[C@H](c3ccc(Cl)c(Cl)c3)C2)cn1 (racemic) [Example 16, [(3SR,4RS)-3-[(RS)-1-(5-Chloro-pyridin-2-yloxy)-ethyl]-4-(3,4-dichloro-phenyl)-pyrrolidin-1-yl]-(6-methyl-pyridin-3-yl)-methanone]	9.2
Cc1ncc(C(=O)N2C[C@@H]([C@@H](C)Oc3ccc(Cl)cn3)[C@H](c3ccc(Cl)c(Cl)c3)C2)cn1 (racemic) [Example 17, [(3SR,4RS)-3-[(RS)-1-(5-Chloro-pyridin-2-yloxy)-ethyl]-4-(3,4-dichloro-phenyl)-pyrrolidin-1-yl]-(2-methyl-pyrimidin-5-yl)-methanone]	11.8
COc1cc(C(=O)N2C[C@@H]([C@@H](C)Oc3ccc(Cl)cn3)[C@H](c3ccc(Cl)c(Cl)c3)C2)ccn1 (racemic) [Example 18, [(3SR,4RS)-3-[(RS)-1-(5-Chloro-pyridin-2-yloxy)-ethyl]-4-(3,4-dichloro-phenyl)-pyrrolidin-1-yl]-(2-methoxy-pyridin-4-yl)-methanone]	22.7
C[C@@H](Oc1ccc(Cl)cn1)[C@@H]1CN(C(=O)c2ccc(N(C)C)nc2)C[C@H]1c1ccc(Cl)c(Cl)c1 (racemic) [Example 19, [(3SR,4RS)-3-[(RS)-1-(5-Chloro-pyridin-2-yloxy)-ethyl]-4-(3,4-dichloro-phenyl)-pyrrolidin-1-yl]-(6-dimethylamino-pyridin-3-yl)-methanone]	5.8
C[C@@H](Oc1ccc(Cl)cn1)[C@@H]1CN(C(=O)c2ccc(N)nc2)C[C@H]1c1ccc(Cl)c(Cl)c1 (racemic) [Example 20, (6-Amino-pyridin-3-yl)-[(3SR,4RS)-3-[(RS)-1-(5-chloro-pyridin-2-yloxy)-ethyl]-4-(3,4-dichloro-phenyl)-pyrrolidin-1-yl]-methanone]	17
COc1ccc(C(=O)N2C[C@@H]([C@@H](C)Oc3ncc(F)cn3)[C@H](c3ccc(Cl)c(Cl)c3)C2)cn1 (racemic) [Example 25, {(3RS,4SR)-3-(3,4-Dichloro-phenyl)-4-[(RS)-1-(5-fluoro-pyrimidin-2-yloxy)-ethyl]-pyrrolidin-1-yl}-(6-methoxy-pyridin-3-yl)-methanone]	63.3
COc1ccc(C(=O)N2C[C@@H]([C@@H](C)Oc3ccc(F)cn3)[C@H](c3ccc(Cl)c(Cl)c3)C2)cn1 (racemic) [Example 26, {(3RS,4SR)-3-(3,4-Dichloro-phenyl)-4-[(RS)-1-(5-fluoro-pyridin-2-yloxy)-ethyl]-pyrrolidin-1-yl}-(6-methoxy-pyridin-3-yl)-methanone]	66
Cc1cc(C(=O)N2C[C@@H]([C@@H](C)Oc3ccc(Cl)cn3)[C@H](c3ccc(Cl)c(Cl)c3)C2)c(C)o1 (racemic) [Example 28, [(3SR,4RS)-3-[(RS)-1-(5-Chloro-pyridin-2-yloxy)-ethyl]-4-(3,4-dichloro-phenyl)-pyrrolidin-1-yl]-(2,5-dimethyl-furan-3-yl)-methanone]	59
C[C@@H](Oc1ccc(Cl)cn1)[C@@H]1CN(C(=O)c2ccc(CC#N)o2)C[C@H]1c1ccc(Cl)c(Cl)c1 (racemic) [Example 30, {5-[(3SR,4RS)-3-[(RS)-1-(5-Chloro-pyridin-2-yloxy)-ethyl]-4-(3,4-dichloro-phenyl)-pyrrolidine-1-carbonyl]-furan-2-yl}-acetonitrile]	80
Cc1cc(C(=O)N2C[C@@H]([C@@H](C)Oc3ccc(Cl)cn3)[C@H](c3ccc(Cl)c(Cl)c3)C2)c(C)n1C1CC1 (racemic) [Example 31, [(3SR,4RS)-3-[(RS)-1-(5-Chloro-pyridin-2-yloxy)-ethyl]-4-(3,4-dichloro-phenyl)-pyrrolidin-1-yl]-(1-cyclopropyl-2,5-dimethyl-1H-pyrrol-3-yl)-methanone]	5
COc1ccc(C(=O)N2C[C@@H]([C@@H](C)Oc3ccc(C#N)cn3)[C@H](c3ccc(Cl)c(Cl)c3)C2)cn1 (racemic) [Example 34, 6-{(RS)-1-[(3SR,4RS)-4-(3,4-Dichloro-phenyl)-1-(6-methoxy-pyridine-3-carbonyl)-pyrrolidin-3-yl]-ethoxy}-nicotinonitrile]	47
C[C@@H](Oc1ccc(Cl)cn1)[C@@H]1CN(C(=O)c2ccc(C#N)nc2)C[C@H]1c1ccc(Cl)c(Cl)c1 (racemic) [Example 35, 5-[(3SR,4RS)-3-[(RS)-1-(5-Chloro-pyridin-2-yloxy)-ethyl]-4-(3,4-dichloro-phenyl)-pyrrolidine-1-carbonyl]-pyridine-2-carbonitrile]	2
Cc1ncc(C(=O)N2C[C@H]([C@H](C)Oc3ccc(C#N)cn3)[C@@H](c3ccc(Cl)c(Cl)c3)C2)c(C)n1 (racemic) [Example 36, 6-{(SR)-1-[(3RS,4SR)-4-(3,4-Dichloro-phenyl)-1-(2,4-dimethyl-pyrimidine-5-carbonyl)-pyrrolidin-3-yl]-ethoxy}-nicotinonitrile]	84
